Experimental data taken from PubChem BioAssay (NCI).
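96-well plates; 48 h exposure; 5 concentrations. Endpoints by linear interpolation between flanking doses. Not reached: highest tested concentration assigned. TGI is the concentration that stops growth completely.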

Tests used:
Assay in all cases: DTP human tumour cell line panel, 48 h
[1] = system: 786-0 renal
[2] = system: A498 renal
[3] = system: A549 NSCLC
[4] = system: ACHN renal
[5] = system: CAKI-1 renal
[6] = system: CCRF-CEM leukemia
[7] = system: COLO 205 colon
[8] = system: DU-145 prostate
[9] = system: EKVX NSCLC
[10] = system: HCC-2998 colon
[11] = system: HCT-116 colon
[12] = system: HCT-15 colon
[13] = system: HOP-62 NSCLC
[14] = system: HOP-92 NSCLC
[15] = system: HS 578T breast
[16] = system: K-562 leukemia
[17] = system: KM12 colon
[18] = system: LOX IMVI melanoma
[19] = system: M14 melanoma
[20] = system: MCF7 breast
[21] = system: MDA-MB-231 breast
[22] = system: MDA-MB-435
[23] = system: MDA-N
[24] = system: NCI-H226 lung
[25] = system: NCI/ADR-RES ovarian
[26] = system: OVCAR-3 ovarian
[27] = system: OVCAR-4 ovarian
[28] = system: OVCAR-5 ovarian
[29] = system: PC-3 prostate
[30] = system: RPMI-8226 leukemia
[31] = system: RXF 393 renal
[32] = system: SF-268 CNS
[33] = system: SF-295 CNS
[34] = system: SF-539 CNS
[35] = system: SK-MEL-2 melanoma
[36] = system: SK-MEL-28 melanoma
[37] = system: SK-MEL-5 melanoma
[38] = system: SK-OV-3 ovarian
[39] = system: SN12C renal
[40] = system: SNB-19 CNS
[41] = system: SNB-75 CNS
[42] = system: SW-620 colon
[43] = system: T-47D breast
[44] = system: TK-10 renal
[45] = system: U251 CNS
[46] = system: UACC-257 melanoma
[47] = system: UACC-62 melanoma
[48] = system: UO-31 renal
[49] = system: HT29 colon
[50] = system: IGROV1 ovarian
[51] = system: MOLT-4 leukemia
[52] = system: NCI-H23 lung
[53] = system: NCI-H460 lung
[54] = system: NCI-H522 lung
[55] = system: OVCAR-8 ovarian
[56] = system: SR leukemia
[57] = system: HL-60(TB) leukemia
[58] = system: MALME-3M melanoma

## Nc1nc2c(ncn2CC2CCC(CO)C2)c(=O)[nH]1 (stereo not given)
[1]
  TGI: > 100 µM
[2]
  TGI: > 100 µM
[3]
  TGI: > 100 µM
[4]
  TGI: > 100 µM
[5]
  TGI: > 100 µM
[6]
  TGI: > 100 µM
[7]
  TGI: > 100 µM
[8]
  TGI: > 100 µM
[9]
  TGI: > 100 µM
[10]
  TGI: > 100 µM
[11]
  TGI: > 100 µM
[12]
  TGI: > 100 µM
[13]
  TGI: > 100 µM
[14]
  TGI: > 100 µM
[15]
  TGI: > 100 µM
[16]
  TGI: > 100 µM
[17]
  TGI: > 100 µM
[18]
  TGI: > 100 µM
[19]
  TGI: > 100 µM
[20]
  TGI: > 100 µM
[21]
  TGI: > 100 µM
[22]
  TGI: > 100 µM
[23]
  TGI: > 100 µM
[24]
  TGI: > 100 µM
[25]
  TGI: > 100 µM
[26]
  TGI: > 100 µM
[27]
  TGI: > 100 µM
[28]
  TGI: > 100 µM
[29]
  TGI: > 100 µM
[30]
  TGI: > 100 µM
[31]
  TGI: > 100 µM
[32]
  TGI: > 100 µM
[33]
  TGI: > 100 µM
[34]
  TGI: > 100 µM
[35]
  TGI: > 100 µM
[36]
  TGI: > 100 µM
[37]
  TGI: > 100 µM
[38]
  TGI: > 100 µM
[39]
  TGI: > 100 µM
[40]
  TGI: > 100 µM
[41]
  TGI: > 100 µM
[42]
  TGI: > 100 µM
[43]
  TGI: > 100 µM
[44]
  TGI: > 100 µM
[45]
  TGI: > 100 µM
[46]
  TGI: > 100 µM
[47]
  TGI: > 100 µM
[48]
  TGI: > 100 µM

## COc1c2c(cc3nc4ccccc4nc13)CC[C@H](NC(C)=O)c1cc(=O)c(SC)ccc1-2
[1]
  TGI: 39.8 µM
[2]
  TGI: > 90.9 µM
[3]
  TGI: > 100 µM
[4]
  TGI: > 64.5 µM
[5]
  TGI: > 42.6 µM
[6]
  TGI: > 100 µM
[7]
  TGI: 3.31 µM
[8]
  TGI: 51.3 µM
[9]
  TGI: 8.63 µM
[10]
  TGI: > 24.6 µM
[11]
  TGI: 27.3 µM
[12]
  TGI: 19 µM
[13]
  TGI: > 100 µM
[14]
  TGI: > 55.9 µM
[15]
  TGI: 0.7 µM
[49]
  TGI: 6.23 µM
[50]
  TGI: 4.36 µM
[16]
  TGI: > 42.2 µM
[17]
  TGI: 3 µM
[18]
  TGI: > 71.6 µM
[19]
  TGI: 19.3 µM
[20]
  TGI: > 100 µM
[21]
  TGI: 36.1 µM
[23]
  TGI: 0.329 µM
[51]
  TGI: > 65.4 µM
[24]
  TGI: 32.2 µM
[52]
  TGI: 0.777 µM
[53]
  TGI: > 100 µM
[54]
  TGI: 1.69 µM
[25]
  TGI: > 100 µM
[26]
  TGI: > 100 µM
[27]
  TGI: 38.7 µM
[28]
  TGI: > 100 µM
[55]
  TGI: > 32.7 µM
[29]
  TGI: > 69.6 µM
[30]
  TGI: > 100 µM
[31]
  TGI: > 49.9 µM
[32]
  TGI: > 56.5 µM
[33]
  TGI: > 44.6 µM
[34]
  TGI: 5.28 µM
[35]
  TGI: > 55.2 µM
[36]
  TGI: > 100 µM
[37]
  TGI: 10.8 µM
[38]
  TGI: > 70.9 µM
[39]
  TGI: 34.2 µM
[40]
  TGI: > 100 µM
[56]
  TGI: > 32.5 µM
[42]
  TGI: > 100 µM
[44]
  TGI: > 59.3 µM
[45]
  TGI: 10.6 µM
[46]
  TGI: 30.5 µM
[47]
  TGI: 44.6 µM
[48]
  TGI: 28.7 µM

## N#CC(=N)c1ncn(CCO)c1NC(=O)C(F)(F)F
[1]
  TGI: > 100 µM
[2]
  TGI: > 100 µM
[3]
  TGI: > 100 µM
[4]
  TGI: > 100 µM
[5]
  TGI: > 100 µM
[6]
  TGI: > 100 µM
[7]
  TGI: > 100 µM
[8]
  TGI: > 100 µM
[9]
  TGI: > 100 µM
[10]
  TGI: > 100 µM
[11]
  TGI: > 100 µM
[12]
  TGI: > 100 µM
[57]
  TGI: > 100 µM
[13]
  TGI: > 100 µM
[15]
  TGI: > 100 µM
[49]
  TGI: > 100 µM
[50]
  TGI: > 100 µM
[16]
  TGI: > 100 µM
[17]
  TGI: > 100 µM
[18]
  TGI: > 100 µM
[19]
  TGI: > 100 µM
[58]
  TGI: > 100 µM
[21]
  TGI: > 100 µM
[22]
  TGI: > 100 µM
[23]
  TGI: > 100 µM
[24]
  TGI: > 100 µM
[52]
  TGI: > 100 µM
[53]
  TGI: > 100 µM
[54]
  TGI: > 100 µM
[25]
  TGI: > 100 µM
[26]
  TGI: > 100 µM
[27]
  TGI: > 100 µM
[28]
  TGI: > 100 µM
[55]
  TGI: > 100 µM
[29]
  TGI: > 100 µM
[30]
  TGI: > 100 µM
[31]
  TGI: > 100 µM
[32]
  TGI: > 100 µM
[33]
  TGI: > 100 µM
[34]
  TGI: > 100 µM
[35]
  TGI: > 100 µM
[36]
  TGI: > 100 µM
[37]
  TGI: > 100 µM
[38]
  TGI: > 100 µM
[39]
  TGI: > 100 µM
[40]
  TGI: > 100 µM
[41]
  TGI: > 100 µM
[56]
  TGI: > 100 µM
[42]
  TGI: > 100 µM
[43]
  TGI: > 100 µM
[44]
  TGI: > 100 µM
[45]
  TGI: > 100 µM
[46]
  TGI: > 100 µM
[47]
  TGI: > 100 µM
